Ends that are not written are not given here.
Columns and labels:
normal male Wistar rats = assay: Intravenous insulin tolerance test (IVITT); type: in vivo, rat; settings: 5 μmol/kg i.v.; for insulin-potentiating effect on decreasing blood glucose in IVITT (in words): from 30 min after commencement; for Reduction in Blood Glucose: 0.1 U insulin/kg
Method: IVITTs (0.1 U insulin/kg body weight) were performed on overnight-fasted Wistar male rats as previously described (Lim et al, 1992). Blood samples were taken for glucose estimation at 15, 30, 45, 60 min after the commencement of the tests. Six animals in each group were used.
IVITTs were performed on normal male Wistar rats after a single intravenous (i.v.) injection of the hGH peptide analogues at a dose of 5 μmol/kg body weight. The insulin-potentiating effects of peptides 6, 7, 8 and 10 on decreasing blood glucose levels of treated animals became significant since 30 min after the commencement of the test. Bioactivity was retained when the Arg^8 or Phe^10 residue of Asu^11-hGH(6-13) peptide was substituted with Lys or Tyr respectively (1.92±0.17 or 1.62±0.18 vs. 1.65±0.12 mmol/L at 45 min), as shown in Table 3. However, no insulin-potentiating effect was observed when either Arg^8 or Phe^10 was substituted by Gly (0.92±0.08 or 1.08±0.08 mmol/L respectively vs. 1.00±0.10 mmol/L of control at 45 min). Asu^11-hGH(8-13) also elicited this insulin-potentiating effect, but with lower potency.

[1] = test system: Zucker (fa/fa) rat hemidiaphragm muscle; assay: In vitro glycogen synthesis (glucose incorporation into glycogen) in hemidiaphragm muscle with exogenous insulin; type: cell-based; set-up: key to Activity: insulin-potentiating: improved activity compared to insulin alone; inactive: equal activity compared to insulin alone; insulin antagonist: reduced activity compared to insulin alone; *-**: increasing insulin-potentiating activity
Method: In vitro insulin-potentiating effects of the synthetic peptide analogues were assessed by measuring the rates of exogenous glucose incorporation into glycogen in rat hemidiaphragms (Lim et al, 1992). Hemidiaphragms from overnight-fasted Zucker fatty(fa/fa) female rats were dissected, and divided into segments of approximate 35-50 mg each. Tissues from the same rat were used for all groups. The tissue was incubated in 2 ml of Krebs-Ringer bicarbonate (KRB) buffer (pH 7.4) containing [^14C]glucose (5.5 mM, final specific activity 0.05 mCi/mmol) under an atmosphere of 95% 02-5% CO2 at 37° C. for 1.5 hr. After incubation, tissues were removed, washed with cold buffer and blotted. Tissues were digested, the muscle glycogen was precipitated and the ^14C-radioactivity was counted in a Wallac 1410 liquid scintillation counter. The biological activity of peptide analogues was measured as the rate of mmol glucose incorporation into muscle glycogen/g tissue/hr.
The sensitivity of hemidiaphragm muscle tissue to insulin (0.1-100 mU/ml) on glycogen synthesis was first analyzed. The dose response curves for peptide analogues on the insulin-potentiating effect to glycogen synthesis were then measured using cumulative increasing concentrations (10^−3 10 μmol/ml) of peptides in the presence of insulin (1 mU/ml). The biological activity of each peptide analogue was measured as the rate of glucose incorporation into muscle glycogen (μmol/g tissue/hr), and represented by the mean±SEM from eight determinations.
To determine the insulin-potentiating effect of the peptide analogues, the rates of incorporation of glucose into muscle glycogen were measured. The rates of glycogen synthesis (μmol/g tissue/hr) were 0.52±0.05, 0.60±0.04, 1.27±0.06 and 1.52±0.07 inresponse to 0.33, 1, 3.33 and 10 mU/ml insulin respectively, as shown in FIG. 1.
The insulin-potentiating effect of the peptide analogues was then observed by studying their dose response. curves for glucose incorporation into glycogen in the presence of 1 mU/ml exogenous insulin. The effects of peptides 1, 3, 4, 6, 7, 8 and 10 were evident at doses higher than 0.01 μmol/ml, and continued to increase with increasing peptide concentration to 1 μmol/ml, as shown in FIGS. 2A and 2B.
The activity of each analogue was assessed by in vitro measurement of glycogen synthesis in muscle, as described above.

[2] = test system: Zucker fatty (fa/fa) rats; assay: Basal blood glucose determination after i.p. peptide; type: in vivo, rat; settings: 10 μmol/kg body weight i.p., over 150 min, vs saline
Method: Overnight-fasted Zucker fatty(fa/fa) female rats were anaesthetized with sodium pentobarbitone (60 mg/kg body weight). After 45 min, basal blood glucose samples were taken from the tail vein, followed immediately by intraperitoneal (i.p.) injection of saline (control) or the peptide analogue (test, 10 μmol/kg body weight) in 0.4 ml of saline. Blood samples were taken at 15, 30, 60, 90, 120, 150 minutes after injection, and the blood glucose level in each sample was measured immediately by the glucose oxidase method, using a YSI Model-2300 STAT glucose analyzer (Yellow Spring, Ohio). Six animals for each group were used.
The reduction of basal blood glucose levels in animals by different peptide analogues administered intraperitoneally (i.p.)at a dose of 10 μmol/kg body weight was measured for over 150 min.

[3] = target: insulin receptor tyrosine kinase (Homo sapiens, UniProt P06213); settings: cited from earlier work
[4] = test system: insulin-resistant Zucker fatty (fa/fa) rats; settings: glucose clamp technique; cited from earlier work

| Substance | insulin-potentiating effect on decreasing blood glucose in IVITT (in words) (normal male Wistar rats; listed as Asn^11-hGH(8-13)) | insulin-potentiating effect on decreasing blood glucose in IVITT (in words) (normal male Wistar rats; listed as linear hGH(8-13)) | Reduction in Blood Glucose (normal male Wistar rats; 15 min) | Reduction in Blood Glucose (normal male Wistar rats; 30 min) | Reduction in Blood Glucose (normal male Wistar rats; 45 min) | Reduction in Blood Glucose (normal male Wistar rats; 60 min) | Activity ([1]; Table 5, compared to insulin alone) | insulin-potentiating activity on in vitro glycogen synthesis (in words) ([1]; with 1 mU/ml exogenous insulin) | hypoglycaemic effect (reduction of basal blood glucose level) [2] | effect on insulin receptor tyrosine kinase activity [3] | insulin-potentiating effect on decreasing blood glucose in IVITT (in words) (normal male Wistar rats) | Reduction in Blood Glucose (normal male Wistar rats; 45 min, listed as Asu^11-hGH(6-13)) | glucose tolerance [4] |
| --- | --- | --- | --- | --- | --- | --- | --- | --- | --- | --- | --- | --- | --- |
| Arg-Leu-Phe-Asp-Asn-Ala (RLFDNA-NH2) [Peptide 5] | no such effect | no activity | 0.90 ± 0.09 mmol/L | 1.01 ± 0.11 mmol/L | 1.07 ± 0.15 mmol/L | 1.06 ± 0.12 mmol/L | inactive | abolished | no hypoglycaemic effect |  |  |  |  |
| Leu-Ser-Arg-Leu-Phe-Asu-Asn-Ala (LSRLFDNA-NH2; not fully specified; printed as Leu-Ser-Arg-Leu-Phe-Asu-Asn-Ala) [Peptide 7] |  |  | 1.08 ± 0.09 mmol/L | 1.38 ± 0.13 mmol/L | 1.65 ± 0.12 mmol/L | 1.77 ± 0.19 mmol/L |  |  |  | stimulating | significant | 1.65 ± 0.12 mmol/L | improve glucose tolerance |
